This is an account of results in patent US20120238488A1, “COMPOUNDS AND METHODS FOR TREATING NEOPLASIA” (priority 2009, published 2012).

Data set [1] deals with DU145 prostate cancer cells. Put plainly: MTT assay, combination with paclitaxel. As to conditions: DU145, FIG. 1E. The protocol:
Cell proliferation/viability was assessed by the MTT [3-(4,5-dimethylthiazol-2-yl)-2,5-diphenyltetrazolium bromide] assay, which is commercially available (Sigma, St. Louis, Mo.). Cells were cultured in 96-well plates for twenty-four hours (7-10.000 cells/well) and incubated with various concentrations of the compounds of the invention in serum-containing medium (or left untreated) for seventy-two hours. At the end of incubation, the medium was aspirated and MTT dissolved in RPMI 1640 w/o phenol red was added to each well to a final concentration of 0.25 mg/ml. After four hours incubation in the dark (37° C., 5% CO2) the supernatant was discarded. The converted dye (blue formazan crystals) was solubilized by adding 200 μl dimethylsulfoxide to each well. Absorbance was measured at 550 nm with reference at 655 nm using a spectrophotometer with the respective filters. All assays were performed in triplicate.
(In general: Tetrazolium assays rely on reduction of a dye to a coloured formazan, in cell work by metabolically active cells.)

The test system of data set [2] is membrane androgen receptor. Kind of data set: Membrane androgen receptor competition assay, LNCaP cells. The data set is classed as binding. As to conditions: 40 μM compound 30 minutes before 40 μM testosterone-HSA-FITC, FIG. 3A.
Experimental: After a 24 hour serum starvation period, cells were incubated with 40 μM testosterone-HSA-FITC for 1 hour at room temperature. […] Human serum albumin-FITC was used as a control for background staining. After permeabilization with ice-cold acetone for 4 minutes at room temperature, cell nuclei were stained with DAPI. Coverslips were mounted on slides by using the Slow Fade/Antifade Reagent (Molecular Probes) and studied under a LEICA DMLB microscope, equipped with the appropriate fluorescence filters and a Leica DC 300F camera. Specimens were analyzed using the Leica FW4000 computer program.
To determine the capacity of a given compound to preclude binding of fluorescent testosterone-HSA conjugates (TAC) to the membrane androgen receptor, starved LNCaP or DU145 cells on coverslips prepared as described above were pre-treated with 40 μM of the indicated compound for 30 minutes prior to the addition of testosterone-HSA-FITC. At the end of the incubation period, cells were washed twice with PBS and 40 μM of testosterone-HSA-FITC was added. Specimens were prepared and analyzed as described above.
For data set [3], the system named is SF295 (CNS). Kind of data set: SRB assay, SF295. Format: cell-based, human. How it is done: (§1) SRB assays were performed according to standard National Cancer Institute Guidelines. Briefly, human tumor cells from different cancer panels were seeded into 96 well plates in 100 μL (plating densities ranging from 5-40,000 cells/well depending on the doubling time of individual cell lines) in serum-containing media for twenty-four hours prior to the addition of the compounds to be assayed. After 24 hours, one plate of each cell line was fixed in situ with trichloroacetic acid (TCA). The fixed slides were used to determine the cell population for each cell line at the time of drug addition (Tz). Each compound to be tested was solubilized in DMSO and the desired concentration was then added to the medium and diluted serially 1:10 to provide a total of five or ten drug concentrations plus control (in a final volume of 200 μL). The starting dose before any dilution was 100 uM for all compounds.
(§2) Following drug addition, each culture was incubated for forty-eight hours. The assay was terminated with the addition of cold TCA. The supernatant was discarded, and the plates were washed with tap water and air dried. Sulforhodamine B (SRB) solution was then added to each well. After staining, the bound stain was solubilized and the absorbance was read on an automated plate reader at a wavelength of 515 nm.
(§3) Using the absorbance measurements [time zero, (Tz), control growth, (C), and test growth in the presence of drug at the ten concentration levels (Ti)], the percentage growth was calculated at each of the drug concentrations levels. Percentage growth inhibition was calculated as:
(§4) [(Ti−Tz)/(C−Tz)]×100 for concentrations for which Ti>/=Tz […]
(§5) Three dose response parameters were calculated for each experimental agent. […] The drug concentration resulting in total growth inhibition (TGI) was calculated from Ti=Tz. […]
(§6) Values were calculated for each of these three parameters when the level of activity was reached; however, if the effect was not reached or was exceeded, the value for that parameter was expressed as greater or less than the maximum or minimum concentration tested. […]

Data set [4] relates to membrane androgen receptor. Put plainly: Membrane androgen receptor competition assay, DU145 cells. The data set is classed as binding. As to conditions: 40 μM compound 30 minutes before 40 μM testosterone-HSA-FITC, FIGS. 3B, 3C. The source says:
To assess whether compounds of the invention were capable of binding directly to the membrane androgen receptor, a fluorescent-based assay was used to measure the ability of a given compound to preclude binding of a fluorescent mAR ligand (testosterone-HSA-FITC conjugates) to its receptor in LNCaP and DU145 cells (see Kampa, M et al, 2002, Faseb J 16:1429-1431, and PCT/U52007/007913).
The detection of membrane androgen receptors using fluorescent testosterone-serum albumin conjugates was performed as described by Kampa, M et al, 2002, Faseb J 16:1429-1431, with minor modifications. Briefly, LNCaP or DU145 prostate cancer cells were cultured on 0.1% gelatin-coated glass coverslips in RPMI 1640 medium supplemented with 2 mM L-Glutamine, 10% Fetal Bovine Serum and 1% Penicillin/Streptomycin for at least 48 hours until reaching 70% confluency. After a 24 hour serum starvation period, cells were incubated with 40 μM testosterone-HSA-FITC for 1 hour at room temperature. The cells were then washed three times with phosphate buffered saline (PBS) and fixed with 3.7% formaldehyde in PBS for 5 minutes at room temperature. Human serum albumin-FITC was used as a control for background staining. […] Coverslips were mounted on slides by using the Slow Fade/Antifade Reagent (Molecular Probes) and studied under a LEICA DMLB microscope, equipped with the appropriate fluorescence filters and a Leica DC 300F camera. Specimens were analyzed using the Leica FW4000 computer program.
To determine the capacity of a given compound to preclude binding of fluorescent testosterone-HSA conjugates (TAC) to the membrane androgen receptor, starved LNCaP or DU145 cells on coverslips prepared as described above were pre-treated with 40 μM of the indicated compound for 30 minutes prior to the addition of testosterone-HSA-FITC. […] Specimens were prepared and analyzed as described above. Compounds binding to the membrane androgen receptor preclude binding of fluorescent testosterone-HSA conjugates to their target and abolish membrane-specific fluorescence.

In data set [5] the test system is T470 (Breast). Put plainly: SRB assay, T470. Format: cell-based, human. As to conditions: 48 h. The protocol:
as §1, §2, §3, §4, §5, §6
For orientation: The SRB assay estimates cell density from bound dye.

What is called GI50 is the concentration that inhibits growth by half. Broadly, the TGI is the concentration giving total growth inhibition. A higher TGI goes with lower sensitivity of the cells.

As for `CC(=O)O[C@H]1C(=O)[C@@]2(C)[C@H]([C@H](OC(=O)c3ccccc3)[C@]3(O)C[C@H](OC(=O)[C@H](O)[C@@H](NC(=O)c4ccccc4)c4ccccc4)C(C)=C1C3(C)C)[C@]1(OC(C)=O)CO[C@@H]1C[C@@H]2O` [Paclitaxel, reference compound], the cytotoxic activity alone result in data set [1] (paclitaxel 20 nM) was “limited cytotoxic activity”.

For `C[C@]12CCC(=NOCCN)C=C1CCC1C2CC[C@]2(C)C(=O)CCC12` (stereo partly drawn) [Compound 12, (10R,13S)-3-(2-aminoethoxyimino)-10,13-dimethyl-2,3,7,8,9,10,11,12,13,14,15,16-dodecahydro-1H-cyclopenta[a]phenanthren-17(6H)-one], the “membrane fluorescence of TAC-FITC after pre-treatment (binding to mAR precluded)” value in data set [2] and in data set [4] was “devoid of membrane fluorescence” each time. Also, the CC50 in data set [3] (Homo sapiens, SF-295, 48 h, read-out: LC50) was 9.04 µM; in data set [5] (Homo sapiens, read-out: LC50) it was 69.6 µM. The GI50 in data set [3] (Homo sapiens, SF-295, SF295, SRB, 48 h) is 3.26 µM; in data set [5] (Homo sapiens, T470, SRB) it was 5.98 µM. The TGI in data set [3] (SF295, SRB, 48 h) was determined as 6.15 µM; in data set [5] (T470, SRB) it was 26.42 µM. For the same compound, the “enhancement of the cytotoxic action of paclitaxel” value in data set [1] (1 or 2 uM compound 12 added to paclitaxel 20 nM) is “clearly enhances the cytotoxic action”.

Consider `C[C@]12CCC(=NOC3CCNC3)CC1CCC1C2CC[C@]2(C)C(=O)CCC12` (stereo partly drawn) [Compound 56, (10S,13S)-10,13-dimethyl-3-(pyrrolidin-3-yloxyimino)tetradecahydro-1H-cyclopenta[a]phenanthren-17(2H)-one], for which the “membrane fluorescence of TAC-FITC after pre-treatment (binding to mAR precluded)” value in data set [4] was “devoid of membrane fluorescence”.
